Assay results published in ChEMBL document CHEMBL1671765, “Microbiologic and clinical implications of bacteremia due to extended-spectrum-beta-lactamase-producing Klebsiella pneumoniae with or without plasmid-mediated AmpC beta-lactamase DHA-1” (2010).
≈ marks a conversion by molar mass, not a printed value.

How the values were obtained:
Type in all cases: functional
[1] = system: Klebsiella pneumoniae; experiment: Antibacterial activity against plasmid-mediated AmpC beta-Lactamase DHA-1 and ESBL-producing Klebsiella pneumoniae by Etest
[2] = system: Klebsiella pneumoniae; experiment: Antibacterial activity against ESBL-producing Klebsiella pneumoniae by Etest
[3] = system: Klebsiella pneumoniae; experiment: Antibacterial activity against ESBL-producing Klebsiella pneumoniae by Etest in presence of Tazobactam
[4] = system: Klebsiella pneumoniae; experiment: Antibacterial activity against plasmid-mediated AmpC beta-Lactamase DHA-1 and ESBL-producing Klebsiella pneumoniae by Etest in presence of Tazobactam

MIC [1] | MIC [2] | MIC50 [3] | MIC90 [3] | MIC50 [4] | MIC90 [4] | SMILES | MIC50 [1] | MIC90 [1] | MIC50 [2] | MIC90 [2]
0.5 µg/mL (≈ 1.05 µM) | 0.015 µg/mL (≈ 0.0315 µM) | – | – | – | – | C[C@@H](O)[C@H]1C(=O)N2C(C(=O)O)=C(S[C@@H]3CN[C@H](C(=O)Nc4cccc(C(=O)O)c4)C3)[C@H](C)[C@H]12 [ERTAPENEM] | 0.5 µg/mL (≈ 1.05 µM) | 2 µg/mL (≈ 4.21 µM) | 0.015 µg/mL (≈ 0.0315 µM) | 0.5 µg/mL (≈ 1.05 µM)
– | – | 8 µg/mL | 32 µg/mL | 8 µg/mL | 64 µg/mL | CCN1CCN(C(=O)N[C@@H](C(=O)N[C@@H]2C(=O)N3[C@@H]2SC(C)(C)[C@@H]3C(=O)O)c2ccccc2)C(=O)C1=O [PIPERACILLIN] | – | – | – | –

The remaining lines, values behind:

SMILES | MIC [1] | MIC [2] | MIC50 [3] | MIC90 [3] | MIC50 [4] | MIC90 [4] | MIC50 [1] | MIC90 [1] | MIC50 [2] | MIC90 [2]
NCC[C@H](O)C(=O)N[C@@H]1C[C@H](N)[C@@H](O[C@H]2O[C@H](CN)[C@@H](O)[C@H](O)[C@H]2O)[C@H](O)[C@H]1O[C@H]1O[C@H](CO)[C@@H](O)[C@H](N)[C@H]1O [AMIKACIN] | – | – | – | – | – | – | > 256 µg/mL | > 256 µg/mL | 4 µg/mL (≈ 6.83 µM) | 32 µg/mL (≈ 54.6 µM)
O=C(O)c1cn(C2CC2)c2cc(N3CCNCC3)c(F)cc2c1=O [CIPROFLOXACIN] | – | – | – | – | – | – | > 32 µg/mL | > 32 µg/mL | 0.125 µg/mL (≈ 0.377 µM) | 8 µg/mL (≈ 24.1 µM)
C[C@@H](O)[C@H]1C(=O)N2C(C(=O)O)=C(SCCNC=N)C[C@H]12 [IMIPENEM ANHYDROUS] | – | – | – | – | – | – | 0.5 µg/mL (≈ 1.67 µM) | 2 µg/mL (≈ 6.68 µM) | 0.25 µg/mL (≈ 0.835 µM) | 0.5 µg/mL (≈ 1.67 µM)
C[C@@H](O)[C@H]1C(=O)N2C(C(=O)O)=C(S[C@@H]3CN[C@H](C(=O)N(C)C)C3)[C@H](C)[C@H]12 [MEROPENEM] | – | – | – | – | – | – | 0.12 µg/mL (≈ 0.313 µM) | 0.5 µg/mL (≈ 1.3 µM) | 0.03 µg/mL (≈ 0.0782 µM) | 0.06 µg/mL (≈ 0.156 µM)
